Results taken from ChEMBL document CHEMBL1147911, “Synthesis and evaluation of novel benzimidazole derivative [Bz-Im] and its radio/biological studies” (Bioorg Med Chem Lett, 2007).

Experiments:
Aspergillus flavus [1] = experiment: Antifungal activity against Aspergillus flavus at 20 ug/ml after seven days by agar plate method; assay type: functional; details: 168 h
Heart [2] = experiment: Biodistribution in Albino mouse heart at 10 uCi after 4 hr; assay type: ADME, organism-based; details: in vivo
Brain [3] = experiment: Biodistribution in Albino mouse brain at 10 uCi after 2 hr; assay type: ADME, organism-based; details: in vivo
Liver [4] = experiment: Biodistribution in Albino mouse liver at 10 uCi after 4 hr; assay type: ADME, organism-based; details: in vivo
Spleen [5] = experiment: Biodistribution in Albino mouse spleen at 10 uCi after 1 hr; assay type: ADME, organism-based; details: in vivo
Kidney [6] = experiment: Biodistribution in Albino mouse kidney at 10 uCi after 4 hr; assay type: ADME, organism-based; details: in vivo
Heart [7] = experiment: Biodistribution in Albino mouse heart at 10 uCi after 2 hr; assay type: ADME, organism-based; details: in vivo
Kidney [8] = experiment: Biodistribution in Albino mouse kidney at 10 uCi after 1 hr; assay type: ADME, organism-based; details: in vivo
Liver [9] = experiment: Biodistribution in Albino mouse liver at 10 uCi after 2 hr; assay type: ADME, organism-based; details: in vivo
Spleen [10] = experiment: Biodistribution in Albino mouse spleen at 10 uCi after 4 hr; assay type: ADME, organism-based; details: in vivo
Liver [11] = experiment: Biodistribution in Albino mouse liver at 10 uCi after 1 hr; assay type: ADME, organism-based; details: in vivo
Aspergillus niger [12] = experiment: Antifungal activity against Aspergillus niger at 20 ug/ml after seven days by agar plate method; assay type: functional; details: 168 h
Heart [13] = experiment: Biodistribution in Albino mouse heart at 10 uCi after 1 hr; assay type: ADME, organism-based; details: in vivo
Intestine [14] = experiment: Biodistribution in Albino mouse intestine at 10 uCi after 1 hr; assay type: ADME, organism-based; details: in vivo
Stomach [15] = experiment: Biodistribution in Albino mouse stomach at 10 uCi after 2 hr; assay type: ADME, organism-based; details: in vivo
Intestine [16] = experiment: Biodistribution in Albino mouse intestine at 10 uCi after 2 hr; assay type: ADME, organism-based; details: in vivo
Blood [17] = experiment: Biodistribution in Albino mouse blood at 10 uCi after 6 hr; assay type: ADME, organism-based; details: in vivo
Spleen [18] = experiment: Biodistribution in Albino mouse spleen at 10 uCi after 6 hr; assay type: ADME, organism-based; details: in vivo
Liver [19] = experiment: Biodistribution in Albino mouse liver at 10 uCi after 6 hr; assay type: ADME, organism-based; details: in vivo
Heart [20] = experiment: Biodistribution in Albino mouse heart at 10 uCi after 6 hr; assay type: ADME, organism-based; details: in vivo
Blood [21] = experiment: Biodistribution in Albino mouse blood at 10 uCi after 4 hr; assay type: ADME, organism-based; details: in vivo
Brain [22] = experiment: Biodistribution in Albino mouse brain at 10 uCi after 8 hr; assay type: ADME, organism-based; details: in vivo
Spleen [23] = experiment: Biodistribution in Albino mouse spleen at 10 uCi after 8 hr; assay type: ADME, organism-based; details: in vivo
Kidney [24] = experiment: Biodistribution in Albino mouse kidney at 10 uCi after 8 hr; assay type: ADME, organism-based; details: in vivo
Brain [25] = experiment: Biodistribution in Albino mouse brain at 10 uCi after 6 hr; assay type: ADME, organism-based; details: in vivo
Heart [26] = experiment: Biodistribution in Albino mouse heart at 10 uCi after 8 hr; assay type: ADME, organism-based; details: in vivo
[27] = molecular target: T1, Cholecystokinin receptor type A (Rattus norvegicus, UniProt P30551); experiment: Displacement of [125I](BH)CCK8 from rat CCK1 after 30 mins by receptor binding assay
T1 sequence (P30551 whole entry): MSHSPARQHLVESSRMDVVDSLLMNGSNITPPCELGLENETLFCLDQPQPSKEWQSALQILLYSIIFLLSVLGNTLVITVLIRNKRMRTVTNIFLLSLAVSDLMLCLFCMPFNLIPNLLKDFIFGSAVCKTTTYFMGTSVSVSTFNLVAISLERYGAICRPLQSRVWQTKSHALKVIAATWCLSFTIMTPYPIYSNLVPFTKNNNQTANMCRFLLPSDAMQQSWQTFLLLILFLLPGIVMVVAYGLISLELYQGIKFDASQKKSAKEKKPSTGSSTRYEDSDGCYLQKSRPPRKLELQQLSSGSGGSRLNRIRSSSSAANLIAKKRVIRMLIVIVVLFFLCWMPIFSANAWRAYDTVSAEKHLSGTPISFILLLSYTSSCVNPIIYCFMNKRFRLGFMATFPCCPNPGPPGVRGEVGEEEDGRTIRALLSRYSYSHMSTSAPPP

Kidney [28] = experiment: Biodistribution in Albino mouse kidney at 10 uCi after 6 hr; assay type: ADME, organism-based; details: in vivo
Stomach [29] = experiment: Biodistribution in Albino mouse stomach at 10 uCi after 8 hr; assay type: ADME, organism-based; details: in vivo
[30] = molecular target: T2, Cholecystokinin receptor type A (Cavia porcellus, UniProt Q63931); experiment: Displacement of [125I](BH)CCK8 from Guinea pig CCK1 after 30 mins by receptor binding assay
T2 sequence (Q63931 whole entry): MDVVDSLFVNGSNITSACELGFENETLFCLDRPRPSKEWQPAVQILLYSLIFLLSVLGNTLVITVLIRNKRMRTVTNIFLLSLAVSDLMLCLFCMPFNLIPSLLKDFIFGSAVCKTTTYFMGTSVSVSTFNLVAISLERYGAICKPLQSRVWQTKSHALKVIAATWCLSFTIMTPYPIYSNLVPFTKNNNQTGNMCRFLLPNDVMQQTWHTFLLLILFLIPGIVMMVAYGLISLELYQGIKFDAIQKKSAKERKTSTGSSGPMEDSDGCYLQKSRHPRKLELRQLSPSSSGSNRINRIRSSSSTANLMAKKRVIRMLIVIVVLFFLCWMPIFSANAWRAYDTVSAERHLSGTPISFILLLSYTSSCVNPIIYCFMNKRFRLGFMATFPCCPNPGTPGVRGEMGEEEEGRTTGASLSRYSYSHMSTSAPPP

Intestine [31] = experiment: Biodistribution in Albino mouse intestine at 10 uCi after 6 hr; assay type: ADME, organism-based; details: in vivo
Stomach [32] = experiment: Biodistribution in Albino mouse stomach at 10 uCi after 4 hr; assay type: ADME, organism-based; details: in vivo
Aspergillus flavus [33] = experiment: Antifungal activity against Aspergillus flavus at 50 ug/ml after seven days by agar plate method; assay type: functional; details: 168 h
Blood [34] = experiment: Biodistribution in Albino mouse blood at 10 uCi after 8 hr; assay type: ADME, organism-based; details: in vivo
Spleen [35] = experiment: Biodistribution in Albino mouse spleen at 10 uCi after 2 hr; assay type: ADME, organism-based; details: in vivo
Stomach [36] = experiment: Biodistribution in Albino mouse stomach at 10 uCi after 1 hr; assay type: ADME, organism-based; details: in vivo
Stomach [37] = experiment: Biodistribution in Albino mouse stomach at 10 uCi after 6 hr; assay type: ADME, organism-based; details: in vivo
Blood [38] = experiment: Biodistribution in Albino mouse blood at 10 uCi after 2 hr; assay type: ADME, organism-based; details: in vivo
Intestine [39] = experiment: Biodistribution in Albino mouse intestine at 10 uCi after 4 hr; assay type: ADME, organism-based; details: in vivo
Aspergillus niger [40] = experiment: Antifungal activity against Aspergillus niger at 50 ug/ml after seven days by agar plate method; assay type: functional; details: 168 h
Aspergillus niger [41] = experiment: Antifungal activity against Aspergillus niger at 10 ug/ml after seven days by agar plate method; assay type: functional; details: 168 h
Kidney [42] = experiment: Biodistribution in Albino mouse kidney at 10 uCi after 2 hr; assay type: ADME, organism-based; details: in vivo
Aspergillus flavus [43] = experiment: Antifungal activity against Aspergillus flavus at 10 ug/ml after seven days by agar plate method; assay type: functional; details: 168 h
Intestine [44] = experiment: Biodistribution in Albino mouse intestine at 10 uCi after 8 hr; assay type: ADME, organism-based; details: in vivo
Liver [45] = experiment: Biodistribution in Albino mouse liver at 10 uCi after 8 hr; assay type: ADME, organism-based; details: in vivo
Brain [46] = experiment: Biodistribution in Albino mouse brain at 10 uCi after 4 hr; assay type: ADME, organism-based; details: in vivo
Blood [47] = experiment: Biodistribution in Albino mouse blood at 10 uCi after 1 hr; assay type: ADME, organism-based; details: in vivo

## O=C1c2ccccc2C(=O)N1Cc1c(O)ccc2c(/C=C/c3ccccc3)cc3nc4ccccc4n3c12
Aspergillus flavus [1]
  inhibition at 20 µg/mL: 76.7%
Heart [2]
  Drug uptake: 0.3 % ID/g
Brain [3]
  Drug uptake: 0.2 % ID/g
Liver [4]
  Drug uptake: 18 % ID/g
Spleen [5]
  Drug uptake: 10 % ID/g
Kidney [6]
  Drug uptake: 2 % ID/g
Heart [7]
  Drug uptake: 0.4 % ID/g
Kidney [8]
  Drug uptake: 5 % ID/g
Liver [9]
  Drug uptake: 25 % ID/g
Spleen [10]
  Drug uptake: 14 % ID/g
Liver [11]
  Drug uptake: 18 % ID/g
Aspergillus niger [12]
  inhibition at 20 µg/mL: 76.8%
Heart [13]
  Drug uptake: 1 % ID/g
Intestine [14]
  Drug uptake: 0.5 % ID/g
Stomach [15]
  Drug uptake: 2.5 % ID/g
Intestine [16]
  Drug uptake: 0.5 % ID/g
Blood [17]
  Drug uptake: 0.5 % ID/g
Spleen [18]
  Drug uptake: 12 % ID/g
Liver [19]
  Drug uptake: 15 % ID/g
Heart [20]
  Drug uptake: 0.3 % ID/g
Blood [21]
  Drug uptake: 2 % ID/g
Brain [22]
  Drug uptake: 1 % ID/g
Spleen [23]
  Drug uptake: 11 % ID/g
Kidney [24]
  Drug uptake: 5 % ID/g
Brain [25]
  Drug uptake: 1 % ID/g
Heart [26]
  Drug uptake: 0.2 % ID/g
[27]
  IC50: 942 nM
Kidney [28]
  Drug uptake: 5 % ID/g
Stomach [29]
  Drug uptake: 9.5 % ID/g
[30]
  IC50: 4320 nM
Intestine [31]
  Drug uptake: 3 % ID/g
Stomach [32]
  Drug uptake: 3 % ID/g
Aspergillus flavus [33]
  inhibition at 50 µg/mL: 88.3%
Blood [34]
  Drug uptake: 0.5 % ID/g
Spleen [35]
  Drug uptake: 15 % ID/g
Stomach [36]
  Drug uptake: 1 % ID/g
Stomach [37]
  Drug uptake: 7 % ID/g
Blood [38]
  Drug uptake: 2 % ID/g
Intestine [39]
  Drug uptake: 0.2 % ID/g
Aspergillus niger [40]
  inhibition at 50 µg/mL: 84.6%
Aspergillus niger [41]
  inhibition at 10 µg/mL: 60.3%
Kidney [42]
  Drug uptake: 7 % ID/g
Aspergillus flavus [43]
  inhibition at 10 µg/mL: 73.3%
Intestine [44]
  Drug uptake: 3 % ID/g
Liver [45]
  Drug uptake: 15 % ID/g
Brain [46]
  Drug uptake: 0.45 % ID/g
Blood [47]
  Drug uptake: 3 % ID/g

## C[C@@H]1[C@H](O)[C@@H](C)/C=C/C=C/C=C/C=C/C=C/C=C/C=C/[C@H](O[C@@H]2O[C@H](C)[C@@H](O)[C@H](N)[C@@H]2O)C[C@@H]2O[C@](O)(C[C@@H](O)C[C@@H](O)[C@H](O)CC[C@@H](O)C[C@@H](O)CC(=O)O[C@H]1C)C[C@H](O)[C@H]2C(=O)O [AMPHOTERICIN B]
Aspergillus flavus [1]
  inhibition at 20 µg/mL: 86.4%
Aspergillus niger [12]
  inhibition at 20 µg/mL: 79.9%

## O=C1c2ccccc2C(=O)N1Cc1c(O)ccc2c(/C=C/c3ccc(O)cc3)cc3nc4ccccc4n3c12
Aspergillus flavus [1]
  inhibition at 20 µg/mL: 73.4%
Heart [2]
  Drug uptake: 0.2 % ID/g
Brain [3]
  Drug uptake: 0.2 % ID/g
Liver [4]
  Drug uptake: 14 % ID/g
Spleen [5]
  Drug uptake: 10 % ID/g
Kidney [6]
  Drug uptake: 3 % ID/g
Heart [7]
  Drug uptake: 0.5 % ID/g
Kidney [8]
  Drug uptake: 5.5 % ID/g
Liver [9]
  Drug uptake: 23 % ID/g
Spleen [10]
  Drug uptake: 17 % ID/g
Liver [11]
  Drug uptake: 16 % ID/g
Aspergillus niger [12]
  inhibition at 20 µg/mL: 83.2%
Heart [13]
  Drug uptake: 0.8 % ID/g
Intestine [14]
  Drug uptake: 0.5 % ID/g
Stomach [15]
  Drug uptake: 2 % ID/g
Intestine [16]
  Drug uptake: 0.5 % ID/g
Blood [17]
  Drug uptake: 2.5 % ID/g
Spleen [18]
  Drug uptake: 16 % ID/g
Liver [19]
  Drug uptake: 15 % ID/g
Heart [20]
  Drug uptake: 0.1 % ID/g
Blood [21]
  Drug uptake: 2 % ID/g
Brain [22]
  Drug uptake: 1 % ID/g
Spleen [23]
  Drug uptake: 16 % ID/g
Kidney [24]
  Drug uptake: 4.5 % ID/g
Brain [25]
  Drug uptake: 1 % ID/g
Heart [26]
  Drug uptake: 0.2 % ID/g
[27]
  IC50: 665 nM
Kidney [28]
  Drug uptake: 4.5 % ID/g
Stomach [29]
  Drug uptake: 7.5 % ID/g
[30]
  IC50: 2940 nM
Intestine [31]
  Drug uptake: 1 % ID/g
Stomach [32]
  Drug uptake: 3 % ID/g
Aspergillus flavus [33]
  inhibition at 50 µg/mL: 92.1%
Blood [34]
  Drug uptake: 2.5 % ID/g
Spleen [35]
  Drug uptake: 15 % ID/g
Stomach [36]
  Drug uptake: 1 % ID/g
Stomach [37]
  Drug uptake: 7 % ID/g
Blood [38]
  Drug uptake: 2 % ID/g
Intestine [39]
  Drug uptake: 0.2 % ID/g
Aspergillus niger [40]
  inhibition at 50 µg/mL: 83.6%
Aspergillus niger [41]
  inhibition at 10 µg/mL: 60.7%
Kidney [42]
  Drug uptake: 6 % ID/g
Aspergillus flavus [43]
  inhibition at 10 µg/mL: 60.8%
Intestine [44]
  Drug uptake: 1 % ID/g
Liver [45]
  Drug uptake: 15 % ID/g
Brain [46]
  Drug uptake: 0.45 % ID/g
Blood [47]
  Drug uptake: 2.5 % ID/g

## O=C1c2ccccc2C(=O)N1Cc1c(O)ccc2c(/C=C/c3ccc(-c4ccccc4)cc3)cc3nc4ccccc4n3c12
[27]
  IC50: 197 nM
[30]
  IC50: 16400 nM
